Entries after “also recorded” stand apart in the source; their conditions may differ.
Legend:
[1] = Encapsulation of rhodamine B in PLGA microspheres, confirmed by fluorescence microscopy; format: physicochemical; settings: PLGA microspheres from PLGA/ethyl acetate solution, theoretical loadings 1, 3 and 5%
Description: (§1) The rhodamine B, in its free base form, was dissolved in PLGA/ethyl acetate solutions at theoretical loadings of 1, 3 and 5%(mass drug/mass polymer). Microspheres of uniform 35, 50 and 65 μm diameters were fabricated, hardened and collected using the procedures described in the above examples. The presence of rhodamine had no observable effect on particle uniformity. Encapsulation of rhodamine (˜70% efficiency) was confirmed by fluorescence microscopy (FIG. 6, right). The rhodamine B is released from the spheres over the course of 7-10 days of incubation in PBS and 37° C.

[2] = Release of rhodamine B from PLGA microspheres during incubation in PBS; format: physicochemical; settings: 37° C.
Description: as §1

encapsulation efficiency [1]: ~70%
time over which rhodamine B is released from the spheres ([2]; PLGA microspheres of uniform 35, 50 and 65 μm diameters, theoretical loadings 1, 3 and 5% (mass drug/mass polymer), incubation in PBS): 7 to 10 days
Structure (SMILES): CCN(CC)c1ccc2c(-c3ccccc3C(=O)O)c3ccc(=[N+](CC)CC)cc-3oc2c1 [rhodamine B]
release rate ([2]; dependence on sphere size and drug loading, PLGA microspheres in PBS): faster when spheres were smaller (not shown) or contained more drug; also recorded: faster when spheres contained more drug
